What was measured:
[1] = tested on: P. aeruginosa UFR35 (OXA-23); assay: MIC of compounds and synergy with ceftazidime (broth microdilution); format: cell-based; settings: strain UFR35 (P. aeruginosa); for MIC: Pseudomonas aeruginosa, 18 h, read-out: MIC compounds of the invention alone
Method in brief: (§1)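 MICs were scored by eye after 16-20 h at 35° C (ambient air), using compounds spotted from DMSO.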

[2] = tested on: K. pneumoniae UFR77 (CMY-2); assay: as above; format: cell-based; settings: strain UFR77 (K. pneumoniae); for MIC: Klebsiella pneumoniae, 18 h, read-out: MIC compounds of the invention alone; for MIC, combination of CAZ and compounds of the invention: MIC of ceftazidime with compound fixed at 4 μg/mL
Method in brief: as §1

[3] = tested on: P. aeruginosa UFR92 (Derepressed ampC, OprD-); assay: as above; format: cell-based; settings: MIC of ceftazidime with compound fixed at 4 μg/mL; strain UFR92 (P. aeruginosa)
Method in brief: as §1

[4] = tested on: P. aeruginosa CIP107051 (TEM-24); assay: as above; format: cell-based; settings: strain CIP107051 (P. aeruginosa); for MIC, combination of CAZ and compounds of the invention: MIC of ceftazidime with compound fixed at 4 μg/mL; for MIC: Pseudomonas aeruginosa, 18 h, read-out: MIC compounds of the invention alone
Method in brief: as §1

[5] = tested on: P. aeruginosa UFR90 (Derepressed ampC, OprD-); assay: as above; format: cell-based
Method in brief: as §1

[6] = tested on: C. murliniae 210102 (VIM-4); assay: as above; format: cell-based; settings: strain 210102 (C. murliniae); for MIC: 18 h, read-out: MIC compounds of the invention alone; for MIC, combination of CAZ and compounds of the invention: MIC of ceftazidime with compound fixed at 4 μg/mL
Method in brief: as §1

[7] = tested on: K. pneumoniae 6299 (TEM-1, SHV-11, OXA-163); assay: as above; format: cell-based; settings: strain 6299 (K. pneumoniae); for MIC: Klebsiella pneumoniae, 18 h, read-out: MIC compounds of the invention alone; for MIC, combination of CAZ and compounds of the invention: MIC of ceftazidime with compound fixed at 4 μg/mL
Method in brief: as §1

[8] = tested on: E. coli UFR32 (TEM-1, VEB-1, OXA-10); assay: as above; format: cell-based; settings: strain UFR32 (E. coli); for MIC: Escherichia coli, 18 h, read-out: MIC compounds of the invention alone; for MIC, combination of CAZ and compounds of the invention: MIC of ceftazidime with compound fixed at 4 μg/mL
Method in brief: as §1

[9] = tested on: K. pneumoniae 200047 (TEM-1, SHV-32, CTX-M-15, OXA-1); assay: microbe, parasite or virus in culture; format: cell-based; settings: for MIC: Klebsiella pneumoniae, 18 h, read-out: MIC compounds of the invention alone
SHV-1 = target: T1, SHV-1 (Klebsiella pneumoniae, UniProt P0AD64); assay: β-lactamase inhibitory activity, determination of IC50 (nitrocefin hydrolysis); format: biochemical
T1 construct: made in house; host or cells: E. coli
T1 sequence (P0AD64 22-286): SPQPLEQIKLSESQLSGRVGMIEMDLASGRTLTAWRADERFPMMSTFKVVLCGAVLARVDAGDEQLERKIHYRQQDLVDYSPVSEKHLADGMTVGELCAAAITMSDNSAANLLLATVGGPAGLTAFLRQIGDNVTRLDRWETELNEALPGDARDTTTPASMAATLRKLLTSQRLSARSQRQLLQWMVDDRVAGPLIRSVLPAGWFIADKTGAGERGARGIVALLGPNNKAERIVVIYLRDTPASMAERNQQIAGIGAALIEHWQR

[10] = tested on: E. cloacae 260508 (TEM-1, CTX-M-15); assay: microbe, parasite or virus in culture; format: cell-based; settings: for MIC: Enterobacter cloacae, read-out: MIC compounds of the invention alone; for MIC, combination of CAZ and compounds of the invention: MIC of ceftazidime with compound fixed at 4 μg/mL, strain 260508 (E. cloacae)
Method: (§2) Briefly, compounds alone according to the invention were prepared in DMSO and spotted (2 μL each) on sterile polystyrene plates (Corning, 3788). […] Microplates were incubated for 16-20 h at 35° C. in ambient air. The MIC of the compounds was defined as the lowest concentration of said compounds that prevented bacterial growth as read by visual inspection.

[11] = tested on: K. pneumoniae 160143 (TEM-1, SHV-1, CTX-M-15, KPC-2, OXA-1); assay: microbe, parasite or virus in culture; format: cell-based; settings: for MIC: Klebsiella pneumoniae, 18 h, read-out: MIC compounds of the invention alone
Method: as §2

[12] = tested on: E. coli 190317 (TEM-1, SHV-12, CTX-M-15, OXA-1); assay: microbe, parasite or virus in culture; format: cell-based; settings: for MIC: Escherichia coli, 18 h, read-out: MIC compounds of the invention alone; for MIC, combination of CAZ and compounds of the invention: MIC of ceftazidime with compound fixed at 4 μg/mL, strain 190317 (E. coli)
Method: as §2

OXA-48 = target: T2, OXA-48 (Klebsiella pneumoniae, UniProt Q6XEC0); assay: β-lactamase inhibitory activity, determination of IC50 (nitrocefin hydrolysis); format: biochemical
T2 construct: made in house; host or cells: E. coli
T2 sequence (Q6XEC0 23-265 limits assumed): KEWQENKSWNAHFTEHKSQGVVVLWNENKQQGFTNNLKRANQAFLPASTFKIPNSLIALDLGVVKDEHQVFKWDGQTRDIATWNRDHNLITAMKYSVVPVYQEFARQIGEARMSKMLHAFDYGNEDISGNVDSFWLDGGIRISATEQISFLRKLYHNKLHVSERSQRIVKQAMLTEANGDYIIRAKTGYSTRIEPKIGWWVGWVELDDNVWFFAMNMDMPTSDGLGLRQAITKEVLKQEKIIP

[13] = tested on: E. cloacae UFR85 (TEM-1, CTX-M-15, derepressed ampC); assay: microbe, parasite or virus in culture; format: cell-based; settings: for MIC: Enterobacter cloacae, 18 h, read-out: MIC compounds of the invention alone
Method: […] […] Microplates were incubated for 16-20 h at 35° C. in ambient air. The MIC of the compounds was defined as the lowest concentration of said compounds that prevented bacterial growth as read by visual inspection.

TEM-1 = target: T3, TEM-1 (Escherichia coli, UniProt P62593); assay: β-lactamase inhibitory activity, determination of IC50 (nitrocefin hydrolysis); format: biochemical; settings: class (A), 30 min pre-incubation
T3 construct: made in house; host or cells: E. coli
T3 sequence (P62593 24-286 limits assumed): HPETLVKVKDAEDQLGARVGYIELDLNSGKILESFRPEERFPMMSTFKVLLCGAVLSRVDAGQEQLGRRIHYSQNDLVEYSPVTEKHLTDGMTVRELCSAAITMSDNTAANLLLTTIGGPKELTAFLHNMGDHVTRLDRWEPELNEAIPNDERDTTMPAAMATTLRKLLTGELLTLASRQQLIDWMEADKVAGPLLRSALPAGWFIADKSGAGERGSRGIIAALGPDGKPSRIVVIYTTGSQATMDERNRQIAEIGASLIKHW

For `NC[C@@H]1C(c2nccs2)=C[C@@H]2CN1C(=O)N2OS(=O)(=O)[O-].O=C(O)C(F)(F)F.[Na+]` [Example 2, Sodium and 2,2,2-trifluoroacetate [(2S,5R)-2-(azaniumylmethyl)-7-oxo-3-thiazol-2-yl-1,6-diazabicyclo[3.2.1]oct-3-en-6-yl] sulfate], the “MIC, combination of CAZ and compounds of the invention” value (from here on “MIC, combination”) ([1]; MIC of ceftazidime with compound fixed at 4 μg/mL) was under 0.25 µg/mL, the MIC [1] was 2 µg/mL and the MIC [2] was 32 µg/mL. For the same compound, the “MIC, combination” value [2] was 2 µg/mL, the “MIC, combination” value [3] was under 0.25 µg/mL and the “MIC, combination” value [4] was under 0.25 µg/mL. For the same compound, the MIC [4] was 2 µg/mL, the “MIC, combination” value ([5]; MIC of ceftazidime with compound fixed at 4 μg/mL, strain UFR90 (P. aeruginosa)) was under 0.25 µg/mL and the MIC ([5]; Pseudomonas aeruginosa, 18 h, read-out: MIC compounds of the invention alone) was 1 µg/mL. The MIC [6] was 4 µg/mL, the “MIC, combination” value [6] was at most 0.125 µg/mL and the MIC [7] was over 32 µg/mL. The “MIC, combination” value [7] was 4 µg/mL, the MIC [8] was at most 0.016 µg/mL and the “MIC, combination” value [8] was under 0.25 µg/mL. The MIC [9] was 16 µg/mL, the IC50 (SHV-1) was 0.74 nM and the MIC [10] was at most 0.016 µg/mL. For the same compound, the “MIC, combination” value [10] was under 0.25 µg/mL, the MIC [11] was 8 µg/mL and the MIC [12] was at most 0.016 µg/mL. For the same compound, the “MIC, combination” value [12] was under 0.25 µg/mL, the IC50 (OXA-48) was 3.5 nM and the MIC [13] was 16 µg/mL. The IC50 (TEM-1) was 1.7 nM.
For `NC[C@@H]1C(c2ncco2)=C[C@@H]2CN1C(=O)N2OS(=O)(=O)[O-].O=C(O)C(F)(F)F.[Na+]` [Example 5, Sodium and 2,2,2-trifluoroacetate [(2S,5R)-2-(azaniumylmethyl)-7-oxo-3-oxazol-2-yl-1,6-diazabicyclo[3.2.1]oct-3-en-6-yl] sulfate], the MIC [1] was 0.25 µg/mL, the MIC [2] was over 32 µg/mL and the “MIC, combination” value [2] was under 0.25 µg/mL. The “MIC, combination” value [4] was under 0.25 µg/mL, the MIC [4] was 2 µg/mL and the MIC [6] was 4 µg/mL. The “MIC, combination” value [6] was under 0.25 µg/mL, the MIC [7] was over 32 µg/mL and the “MIC, combination” value [7] was 8 µg/mL. For the same compound, the MIC [8] was 0.063 µg/mL, the “MIC, combination” value [8] was under 0.25 µg/mL and the MIC [9] was 16 µg/mL. For the same compound, the “MIC, combination” value ([9]; MIC of ceftazidime with compound fixed at 4 μg/mL, strain 200047 (K. pneumoniae)) was under 0.25 µg/mL, the IC50 (SHV-1) was 64 nM and the MIC [10] was 8 µg/mL. The “MIC, combination” value [10] was under 0.25 µg/mL, the MIC [11] was 32 µg/mL and the “MIC, combination” value ([11]; MIC of ceftazidime with compound fixed at 4 μg/mL, strain 160143 (K. pneumoniae)) was under 0.25 µg/mL. For the same compound, the MIC [12] was at most 0.016 µg/mL, the “MIC, combination” value [12] was under 0.25 µg/mL and the IC50 (OXA-48) was 180 nM. For the same compound, the MIC [13] was 8 µg/mL, the “MIC, combination” value ([13]; MIC of ceftazidime with compound fixed at 4 μg/mL, strain UFR85 (E. cloacae)) was under 0.25 µg/mL and the IC50 (TEM-1) was 110 nM.
